Source: PMC4503722, “Novel Phenotypic Outcomes Identified for a Public Collection of Approved Drugs from a Publicly Accessible Panel of Assays” (PLoS ONE, 2015)
Read-outs that look alike come from different tables or passages of the source.

Legend:
[1] = system: endothelial tube formation in co-cultures of ECFCs and ADSCs treated with VEGF; experiment: cells; assay type: cell-based, human; conditions: for IC50: read-out: VEGF_ADSC\ECFC Angio CD31 TubeArea summarized IC50
[2] = system: HCT116 cells treated with a GSK3β inhibitor; experiment: cells; assay type: cell-based; conditions: for IC50/EC50, GSK3b inh pretreated_Viability ATP HCT116 (assay number 26): GSK3b inh pretreated; for IC50: read-out: GSK3b inh pretreated_Viability ATP HCT116 summarized IC50
RKO = experiment: cells; assay type: cell-based; conditions: for IC50: read-out: Basal_Viability ATP RKO summarized IC50
SNU-C1 = experiment: cells; assay type: cell-based; conditions: for IC50: read-out: Basal_Viability ATP SNU-C1 summarized IC50
[3] = system: ECFC/ADSC co-culture cell nuclei number; conditions: for IC50: read-out: VEGF_ADSC\ECFC Angio Hoechst NucArea summarized IC50
DLD-1 = experiment: cells; assay type: cell-based; conditions: for IC50: read-out: Basal_Viability ATP DLD-1 summarized IC50
Colo320 = experiment: cells; assay type: cell-based; conditions: for IC50: read-out: Basal_Viability ATP Colo 320 summarized IC50
SW480 = experiment: cells; assay type: cell-based; conditions: for IC50: read-out: Basal_Viability ATP SW480 summarized IC50
HT-29 = experiment: cells; assay type: cell-based; conditions: for IC50: read-out: Basal_Viability ATP HT-29 summarized IC50
HCT116 = experiment: cells; assay type: cell-based; conditions: for IC50: read-out: Basal_Viability ATP HCT116 summarized IC50
[4] = assay number 26, GSK3b inhibitor pretreated
[5] = assay number 26, GSK3b inhibitor pretreated, concentration response
[6] = assay number 29, concentration response
[7] = assay number 30, concentration response
[8] = assay number 23, concentration response
[9] = assay number 27, concentration response
[10] = assay number 24, concentration response
[11] = assay number 28, concentration response
[12] = assay number 25, basal, concentration response

Row | SMILES | VEGF_ADSC\ECFC Angio CD31 TubeArea IC50/EC50 [1] [µM] | GSK3b inh pretreated_Viability ATP HCT116 IC50/EC50 [2, 4] [µM] | Basal_Viability ATP RKO IC50/EC50 (RKO; assay number 29, basal) [µM] | Basal_Viability ATP SNU-C1 IC50/EC50 (SNU-C1; assay number 30, basal) [µM] | VEGF_ADSC\ECFC Angio Hoechst NucArea IC50/EC50 [3] [µM] | Basal_Viability ATP DLD-1 IC50/EC50 (DLD-1; assay number 23, basal) [µM] | Basal_Viability ATP Colo 320 IC50/EC50 (Colo320; assay number 27, basal) [µM] | Basal_Viability ATP SW480 IC50/EC50 (SW480; assay number 24, basal) [µM] | Basal_Viability ATP HT-29 IC50/EC50 (HT-29; assay number 28, basal) [µM] | Basal_Viability ATP HCT116 IC50/EC50 (HCT116; assay number 25, basal) [µM] | also measured
1 | N/C(=N\N=C\c1ccc(Cl)cc1)N/N=C/c1ccc(Cl)cc1 [NCGC00181026-02] |  |  |  |  |  |  |  |  |  |  | IC50/EC50, VEGF_ADSC\ECFC Angio CD31 TubeArea (assay number 2) [1]: > 10 µM; IC50/EC50, GSK3b inh pretreated_Viability ATP HCT116 (assay number 26) [2]: 0.3442 µM; IC50/EC50, Basal_Viability ATP RKO (assay number 29) (RKO; basal): 0.47 µM; IC50/EC50, Basal_Viability ATP SNU-C1 (assay number 30) (SNU-C1; basal): 0.2795 µM; IC50/EC50, VEGF_ADSC\ECFC Angio Hoechst NucArea (assay number 3) [3]: > 10 µM; IC50/EC50, Basal_Viability ATP DLD-1 (assay number 23) (DLD-1; basal): 0.6538 µM; IC50/EC50, Basal_Viability ATP Colo 320 (assay number 27) (Colo320; basal): 0.4583 µM; IC50/EC50, Basal_Viability ATP SW480 (assay number 24) (SW480; basal): 0.2252 µM; IC50/EC50, Basal_Viability ATP HT-29 (assay number 28) (HT-29; basal): 0.6811 µM; IC50/EC50, Basal_Viability ATP HCT116 (assay number 25) (HCT116; basal): 0.394 µM
2 | CCCCCCCCOC(=O)c1ccccc1C(=O)OCCCCCCCC [NCGC00090781-05] | > 10 | > 20 | > 20 | > 20 | > 10 | > 20 | > 20 | > 20 | > 20 | > 20 | 
3 | CNC(=O)Oc1cccc2ccccc12 [NCGC00090680-06] |  |  |  |  |  |  |  |  |  |  | IC50 [1]: > 10 µM; IC50 [2, 4]: > 20 µM; IC50 (RKO; assay number 29, basal): > 20 µM; IC50 (SNU-C1; assay number 30, basal): > 20 µM; IC50 [3]: > 10 µM; IC50 (DLD-1; assay number 23, basal): > 20 µM; IC50 (Colo320; assay number 27, basal): > 20 µM; IC50 (SW480; assay number 24, basal): > 20 µM; IC50 (HT-29; assay number 28, basal): > 20 µM; IC50 (HCT116; assay number 25, basal): > 20 µM
4 | O=[N+]([O-])c1cccc(S(=O)(=O)NCCNS(=O)(=O)c2cccc([N+](=O)[O-])c2)c1 [NCGC00160679-02] | > 10 | > 20 | > 20 | > 20 | > 10 | > 20 | > 20 | > 20 | > 20 | > 20 | 
5 | CC=CC1C(C(=O)OCc2c(F)c(F)c(COC)c(F)c2F)C1(C)C (stereo not drawn) [NCGC00319021-01] | > 10 |  |  |  | > 10 |  |  |  |  |  | GSK3b inh pretreated_Viability ATP HCT116 IC50/EC50 [2, 5]: > 20 µM; Basal_Viability ATP RKO IC50/EC50 (RKO; [6]): > 20 µM; Basal_Viability ATP SNU-C1 IC50/EC50 (SNU-C1; [7]): > 20 µM; Basal_Viability ATP DLD-1 IC50/EC50 (DLD-1; [8]): > 20 µM; Basal_Viability ATP Colo 320 IC50/EC50 (Colo320; [9]): > 20 µM; Basal_Viability ATP SW480 IC50/EC50 (SW480; [10]): > 20 µM; Basal_Viability ATP HT-29 IC50/EC50 (HT-29; [11]): > 20 µM; Basal_Viability ATP HCT116 IC50/EC50 (HCT116; [12]): > 20 µM
6 | COC(=O)CCCCC(CCSS/C(CCO)=C(\C)N(C=O)Cc1cnc(C)nc1N)SC(C)=O (stereo not drawn) [NCGC00319022-01] | > 10 |  |  |  | > 10 |  |  |  |  |  | GSK3b inh pretreated_Viability ATP HCT116 IC50/EC50 [2, 5]: > 20 µM; Basal_Viability ATP RKO IC50/EC50 (RKO; [6]): > 20 µM; Basal_Viability ATP SNU-C1 IC50/EC50 (SNU-C1; [7]): > 20 µM; Basal_Viability ATP DLD-1 IC50/EC50 (DLD-1; [8]): > 20 µM; Basal_Viability ATP Colo 320 IC50/EC50 (Colo320; [9]): > 20 µM; Basal_Viability ATP SW480 IC50/EC50 (SW480; [10]): > 20 µM; Basal_Viability ATP HT-29 IC50/EC50 (HT-29; [11]): > 20 µM; Basal_Viability ATP HCT116 IC50/EC50 (HCT116; [12]): > 20 µM
7 | CCCCCCCCCCCCCCCCCCOP(=O)([O-])OC1CC[N+](C)(C)CC1 [NCGC00187909-02] | > 10 |  |  |  | > 10 |  |  |  |  |  | GSK3b inh pretreated_Viability ATP HCT116 IC50/EC50 [2, 5]: 5.7889 µM; Basal_Viability ATP RKO IC50/EC50 (RKO; [6]): 2.0992 µM; Basal_Viability ATP SNU-C1 IC50/EC50 (SNU-C1; [7]): > 20 µM; Basal_Viability ATP DLD-1 IC50/EC50 (DLD-1; [8]): > 20 µM; Basal_Viability ATP Colo 320 IC50/EC50 (Colo320; [9]): 2.358 µM; Basal_Viability ATP SW480 IC50/EC50 (SW480; [10]): 0.8519 µM; Basal_Viability ATP HT-29 IC50/EC50 (HT-29; [11]): 6.9016 µM; Basal_Viability ATP HCT116 IC50/EC50 (HCT116; [12]): 3.1704 µM
8 | ClC1=C(Cl)C2(Cl)C(CBr)CC1(Cl)C2(Cl)Cl (stereo not drawn) [NCGC00166203-02] |  |  |  |  |  |  |  |  |  |  | IC50/EC50, VEGF_ADSC\ECFC Angio CD31 TubeArea (assay number 2) [1]: > 10 µM; IC50/EC50, GSK3b inh pretreated_Viability ATP HCT116 (assay number 26) [2]: > 20 µM; IC50/EC50, Basal_Viability ATP RKO (assay number 29) (RKO; basal): > 20 µM; IC50/EC50, Basal_Viability ATP SNU-C1 (assay number 30) (SNU-C1; basal): > 20 µM; IC50/EC50, VEGF_ADSC\ECFC Angio Hoechst NucArea (assay number 3) [3]: 9.9697 µM; IC50/EC50, Basal_Viability ATP DLD-1 (assay number 23) (DLD-1; basal): > 20 µM; IC50/EC50, Basal_Viability ATP Colo 320 (assay number 27) (Colo320; basal): > 20 µM; IC50/EC50, Basal_Viability ATP SW480 (assay number 24) (SW480; basal): > 20 µM; IC50/EC50, Basal_Viability ATP HT-29 (assay number 28) (HT-29; basal): > 20 µM; IC50/EC50, Basal_Viability ATP HCT116 (assay number 25) (HCT116; basal): > 20 µM
9 | O=C1NCCN1CCN1CCC(c2cn(-c3ccc(F)cc3)c3ccc(Cl)cc23)CC1 [NCGC00181782-03] |  |  |  |  |  |  |  |  |  |  | IC50/EC50, VEGF_ADSC\ECFC Angio CD31 TubeArea (assay number 2) [1]: > 10 µM; IC50/EC50, GSK3b inh pretreated_Viability ATP HCT116 (assay number 26) [2]: 3.5177 µM; IC50/EC50, Basal_Viability ATP RKO (assay number 29) (RKO; basal): 2.6022 µM; IC50/EC50, Basal_Viability ATP SNU-C1 (assay number 30) (SNU-C1; basal): 1.4252 µM; IC50/EC50, VEGF_ADSC\ECFC Angio Hoechst NucArea (assay number 3) [3]: > 10 µM; IC50/EC50, Basal_Viability ATP DLD-1 (assay number 23) (DLD-1; basal): 5.6233 µM; IC50/EC50, Basal_Viability ATP Colo 320 (assay number 27) (Colo320; basal): 3.6991 µM; IC50/EC50, Basal_Viability ATP SW480 (assay number 24) (SW480; basal): 2.8086 µM; IC50/EC50, Basal_Viability ATP HT-29 (assay number 28) (HT-29; basal): 2.8613 µM; IC50/EC50, Basal_Viability ATP HCT116 (assay number 25) (HCT116; basal): 2.1598 µM
10 | CCCn1cnc2c1c(=O)n(CCCCC(C)=O)c(=O)n2C [NCGC00015861-09] | > 10 | > 20 | > 20 | > 20 | > 10 | > 20 | > 20 | > 20 | > 20 | > 20 | 
11 | CC(C)Cn1cnc2c1c(=O)n(C)c(=O)n2C [NCGC00168348-03] | > 10 | > 20 | > 20 | > 20 | > 10 | > 20 | > 20 | > 20 | > 20 | > 20 | 
12 | CCC1Nc2cc(Cl)c(S(N)(=O)=O)cc2S(=O)(=O)N1 (stereo not drawn) [NCGC00160540-03] | > 10 | > 20 | > 20 | > 20 | > 10 | > 20 | > 20 | > 6.6667 | > 20 | > 20 | 
13 | Cc1c(O)cc2c(c1C)O[C@](C)(CCC[C@H](C)CCC[C@H](C)CCCC(C)C)CC2 [NCGC00185764-03] | > 10 | > 20 | > 20 | > 20 | > 10 | > 20 | > 20 | > 20 | > 20 | > 20 | 
14 | CCN(CC)C(=O)c1cccnc1 [NCGC00166026-02] | > 10 | > 20 | > 20 | > 20 | > 10 | > 20 | > 20 | > 20 | > 20 | > 20 | 
15 | CN(C)c1ccc(C(=C2C=CC(=[N+](C)C)C=C2)c2ccccc2)cc1 [NCGC00013058-02] |  |  |  |  |  |  |  |  |  |  | IC50 [1]: 0.0605 µM; IC50 [2]: 0.00983 µM; IC50 (RKO): 0.118 µM; IC50 (SNU-C1): 0.0354 µM; IC50 [3]: 1.72 µM; IC50 (DLD-1): 0.0218 µM; IC50 (Colo320): 0.161 µM; IC50 (SW480): 0.00922 µM; IC50 (HT-29): 0.00982 µM; IC50 (HCT116): 0.0179 µM
